Laboratory results as given in PubChem BioAssay AID1259411 (Chemical Carcinogenesis Research Information System (CCRIS), 2018).
Calls of active or inactive are those of the source. The rule behind the calls is not given here.

System: rodent carcinogenicity bioassays, tumor incidence
Test: CCRIS carcinogenicity studies
How it was run: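 Archive of carcinogenicity, mutagenicity, tumor promotion and tumor inhibition results drawn from journals, NCI reports and other sources, expert-reviewed; covers 1985-2011 and is no longer updated.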

[1] = Species: MOUSE, Strain/Sex: SWISS/FEMALE, Route: INHALATION, Dose: 0, 1000, 5000 PPM 4 HR/D 5 D/WK FOR 78 WK (STUDY DURATION: LIFETIME), Dose: 0, 1000, 5000 PPM 4 HR/D 5 D/WK FOR 78 WK (STUDY DURATION: LIFETIME)
[2] = Species: MOUSE, Strain/Sex: SWISS/MALE, Route: INHALATION, Dose: 0, 1000, 5000 PPM 4 HR/D 5 D/WK FOR 78 WK (STUDY DURATION: LIFETIME), Dose: 0, 1000, 5000 PPM 4 HR/D 5 D/WK FOR 78 WK (STUDY DURATION: LIFETIME)
[3] = Species: RAT, Strain/Sex: SPRAGUE-DAWLEY/FEMALE, Route: INHALATION, Dose: 0, 1000, 5000 PPM 4 HR/D 5 D/WK FOR 104 WK (STUDY DURATION: LIFETIME), Dose: 0, 1000, 5000 PPM 4 HR/D 5 D/WK FOR 104 WK (STUDY DURATION: LIFETIME)
[4] = Species: RAT, Strain/Sex: SPRAGUE-DAWLEY/FEMALE, Route: INHALATION, Dose: 0, 1000, 5000 PPM IN AIR 4 HR/D 5 D/WK FOR 104 WK (STUDY DURATION: LIFETIME), Dose: 0, 1000, 5000 PPM IN AIR 4 HR/D 5 D/WK FOR 104 WK (STUDY DURATION: LIFETIME), Tumor Site: Type of Lesion: [BRAIN WAS ONLY SITE EVALUATED]
[5] = Species: RAT, Strain/Sex: SPRAGUE-DAWLEY/MALE, Route: INHALATION, Dose: 0, 1000, 5000 PPM 4 HR/D 5 D/WK FOR 104 WK (STUDY DURATION: LIFETIME), Dose: 0, 1000, 5000 PPM 4 HR/D 5 D/WK FOR 104 WK (STUDY DURATION: LIFETIME)
[6] = Species: RAT, Strain/Sex: SPRAGUE-DAWLEY/MALE, Route: INHALATION, Dose: 0, 1000, 5000 PPM IN AIR 4 HR/D 5 D/WK FOR 104 WK (STUDY DURATION: LIFETIME), Dose: 0, 1000, 5000 PPM IN AIR 4 HR/D 5 D/WK FOR 104 WK (STUDY DURATION: LIFETIME), Tumor Site: Type of Lesion: [BRAIN WAS ONLY SITE EVALUATED]

FC(Cl)(Cl)Cl was tested, and the carcinogen call (Species: MOUSE, Strain/Sex: B6C3F1/FEMALE, Route: GAVAGE, Dose: 0, 1962, 3925 MG/KG, TWA, Dose: 0, 1962, 3925 MG/KG, TWA) was “inactive; negative”, the carcinogen call (Species: MOUSE, Strain/Sex: B6C3F1/MALE, Route: GAVAGE, Dose: 0, 1962, 3925 MG/KG, TWA, Dose: 0, 1962, 3925 MG/KG, TWA) was “inactive; negative” and the carcinogen call [1] was “inactive; negative”. For the same compound, the carcinogen call [2] was “inactive; negative”, the carcinogen call [3] was “inactive; negative” and the carcinogen call [4] was “inactive; negative”. The carcinogen call [5] was “inactive; negative” and the carcinogen call [6] was “inactive; negative”.

With Clc1cccc(-c2cc(Cl)cc(Cl)c2)c1 the carcinogen call (Species: RAT, Strain/Sex: SPRAGUE-DAWLEY/FEMALE, Route: ORAL, Dose: 0, 50, 100, 200 PPM IN DIET FOR THE DURATION OF STUDY (STUDY DURATION: 24 MO), Dose: 0, 50, 100, 200 PPM IN DIET FOR THE DURATION OF STUDY (STUDY DURATION: 24 MO), Tumor Site: Type of Lesion: LIVER: TUMOR) was “active; positive” and the carcinogen call (Species: RAT, Strain/Sex: SPRAGUE-DAWLEY/MALE, Route: ORAL, Dose: 0, 50, 100, 200 PPM IN DIET FOR THE DURATION OF STUDY (STUDY DURATION: 24 MO), Dose: 0, 50, 100, 200 PPM IN DIET FOR THE DURATION OF STUDY (STUDY DURATION: 24 MO)) was “inactive; negative”.

In the case of CCCOC(N)=O, the carcinogen call (Species: MOUSE, Route: INTRAPERITONEAL, Tumor Site: Type of Lesion: LUNG) was “active; positive”.

For C=C(C#N)C(=O)OCC(C)C, the carcinogen call (Species: RAT, Strain/Sex: F344/FEMALE, Route: IMPLANT, Dose: 0, 10, 100 µL INTO VENTRAL LIVER CAPSULE ONCE (STUDY DURATION: 2 YR), Dose: 0, 10, 100 µL INTO VENTRAL LIVER CAPSULE ONCE (STUDY DURATION: 2 YR), Tumor Site: Type of Lesion: BODY CAVITY: SARCOMA) was “active; positive” and the carcinogen call (Species: RAT, Strain/Sex: F344/MALE, Route: IMPLANT, Dose: 0, 10, 100 µL INTO VENTRAL LIVER CAPSULE ONCE (STUDY DURATION: 2 YR), Dose: 0, 10, 100 µL INTO VENTRAL LIVER CAPSULE ONCE (STUDY DURATION: 2 YR), Tumor Site: Type of Lesion: BODY CAVITY: SARCOMA) was “active; positive”.

In the case of NS(=O)(=O)c1cc2c(cc1Cl)NCNS2(=O)=O, the carcinogen call (Species: MOUSE, Strain/Sex: B6C3F1/FEMALE, Route: ORAL, Dose: 0, 2500, 5000 PPM IN FEED FOR 103-104 WK (STUDY DURATION: 106 WK), Dose: 0, 2500, 5000 PPM IN FEED FOR 103-104 WK (STUDY DURATION: 106 WK)) was “inactive; negative”, the carcinogen call (Species: MOUSE, Strain/Sex: B6C3F1/MALE, Route: ORAL, Dose: 0, 2500, 5000 PPM IN FEED FOR 103-104 WK (STUDY DURATION: 106 WK), Dose: 0, 2500, 5000 PPM IN FEED FOR 103-104 WK (STUDY DURATION: 106 WK), Tumor Site: Type of Lesion: LIVER: HEPATOCELLULAR ADENOMA OR CARCINOMA) was “equivocal” and the carcinogen call (Species: RAT, Strain/Sex: F344/FEMALE, Route: ORAL, Dose: 0, 0.1% IN DIET FOR 104 WK (STUDY DURATION: 130 WK)) was “inactive; negative”. For the same compound, the carcinogen call (Species: RAT, Strain/Sex: F344/FEMALE, Route: ORAL, Dose: 0, 250, 500, 2000 PPM IN FEED FOR 105-106 WK (STUDY DURATION: 106 WK), Dose: 0, 250, 500, 2000 PPM IN FEED FOR 105-106 WK (STUDY DURATION: 106 WK)) was “inactive; negative”, the carcinogen call (Species: RAT, Strain/Sex: F344/MALE, Route: ORAL, Dose: 0, 0.1% IN DIET FOR 104 WK (STUDY DURATION: 130 WK)) was “inactive; negative” and the carcinogen call (Species: RAT, Strain/Sex: F344/MALE, Route: ORAL, Dose: 0, 250, 500, 2000 PPM IN FEED FOR 105-106 WK (STUDY DURATION: 106 WK), Dose: 0, 250, 500, 2000 PPM IN FEED FOR 105-106 WK (STUDY DURATION: 106 WK)) was “inactive; negative”.

With c1ccc2c(c1)CCc1cc3c4c(ccc3cc1-2)CCCC4 the carcinogen call (Species: MOUSE, Strain/Sex: SWISS/FEMALE, Route: DERMAL, Dose: 0, 38 UG AS A 0.2% SOLUTION IN ACETONE APPLIED TO INTERSCAPULAR REGION 2/WK FOR 50 WK (STUDY DURATION: 60 WK), Tumor Site: Type of Lesion: SKIN: CARCINOMA) was “active; positive”.

With c1ccc(NNc2ccccc2)cc1 the carcinogen call (Species: MOUSE, Strain/Sex: B6C3F1/FEMALE, Route: ORAL, Dose: 0, 0.004, 0.04% TWA, IN DIET FOR 78 WK (STUDY DURATION: 95-96 WK), Dose: 0, 0.004, 0.04% TWA, IN DIET FOR 78 WK (STUDY DURATION: 95-96 WK), Tumor Site: Type of Lesion: LIVER: HEPATOCELLULAR ADENOMA OR CARCINOMA) was “active; positive”, the carcinogen call (Species: MOUSE, Strain/Sex: B6C3F1/MALE, Route: ORAL, Dose: 0, 0.008, 0.04% TWA, IN DIET FOR 78 WK (STUDY DURATION: 85 WK), Dose: 0, 0.008, 0.04% TWA, IN DIET FOR 78 WK (STUDY DURATION: 85 WK)) was “inactive; negative” and the carcinogen call (Species: RAT, Strain/Sex: F344/FEMALE, Route: ORAL, Dose: 0, 0.004, 0.01% TWA, IN DIET FOR 78 WK (STUDY DURATION: 107-108 WK), Dose: 0, 0.004, 0.01% TWA, IN DIET FOR 78 WK (STUDY DURATION: 107-108 WK), Tumor Site: Type of Lesion: LIVER: NEOPLASTIC NODULE) was “active; positive”. The carcinogen call (Species: RAT, Strain/Sex: F344/MALE, Route: ORAL, Dose: 0, 0.008, 0.03% TWA, IN DIET FOR 78 WK (STUDY DURATION: 106-107 WK), Dose: 0, 0.008, 0.03% TWA, IN DIET FOR 78 WK (STUDY DURATION: 106-107 WK), Tumor Site: Type of Lesion: LIVER: NEOPLASTIC NODULE OR HEPATOCELLULAR CARCINOMA, ADRENAL GLAND: PHEOCHROMOCYTOMA OR MALIGNANT PHEOCHROMOCYTOMA, EAR, Tumor Site: Type of Lesion: LIVER: NEOPLASTIC NODULE OR HEPATOCELLULAR CARCINOMA, ADRENAL GLAND: PHEOCHROMOCYTOMA OR MALIGNANT PHEOCHROMOCYTOMA, EAR) was “active; positive”.

CN(N=O)C(=O)c1c(N(C)N=O)ncn1C was tested, and the carcinogen call (Species: RAT, Strain/Sex: BD-IX/MALE, FEMALE, Route: GAVAGE, Dose: 0, 6, 60 MG/KG 2/WK AFTER 2 WK HIGH DOSE REDUCED TO 30 MG/KG FOR DURATION OF STUDY (STUDY DURATION: LIFETIME), Dose: 0, 6, 60 MG/KG 2/WK AFTER 2 WK HIGH DOSE REDUCED TO 30 MG/KG FOR DURATION OF STUDY (STUDY DURATION: LIFETIME), Tumor Site: Type of Lesion: FORESTOMACH: TUMOR) was “active; positive”.

P was tested, and the carcinogen call (Species: RAT, Strain/Sex: F344/FEMALE, Route: INHALATION, Dose: 0, 0.3, 1.0, 3.0 PPM 6 HR/D 5 D/WK FOR 104 WK (STUDY DURATION: 104 WK), Dose: 0, 0.3, 1.0, 3.0 PPM 6 HR/D 5 D/WK FOR 104 WK (STUDY DURATION: 104 WK)) was “inactive; negative” and the carcinogen call (Species: RAT, Strain/Sex: F344/MALE, Route: INHALATION, Dose: 0, 0.3, 1.0, 3.0 PPM 6 HR/D 5 D/WK FOR 104 WK (STUDY DURATION: 104 WK), Dose: 0, 0.3, 1.0, 3.0 PPM 6 HR/D 5 D/WK FOR 104 WK (STUDY DURATION: 104 WK)) was “inactive; negative”.

FC(F)(Cl)Cl was tested, and the carcinogen call [1] was “inactive; negative”, the carcinogen call [2] was “inactive; negative” and the carcinogen call [3] was “inactive; negative”. For the same compound, the carcinogen call [4] was “inactive; negative”, the carcinogen call [5] was “inactive; negative” and the carcinogen call [6] was “inactive; negative”.
